In patent US9066959B2, “Ficus extracts having angiogenesis inhibiting activity and methods of isolating and using the same” (BOARD OF SUPERVISORS OF LOUISIANA STATE UNIVERSITY AND …, priority 2008, dated 2015):

Tests used:
fragments from a sarcoma = assay: tumor fragment fibrin clot angiogenesis assay, sarcoma; type: cell-based, human; details: 1 mM, day 14, control compound
Protocol: (§1) Fibrin clots were prepared in 96-well plates (Corning Inc., Corning, N.Y.). Each well was preloaded with a human thrombin solution (0.05 IU/mL; in 2.0 μL/well), (Sigma Chemical Company, St Louis, Mo.). A pre-coagulation solution was prepared by dissolving fibrinogen (0.3%; Sigma) and ∈-aminocaproic acid (0.5%; Sigma) in serum-free growth medium consisting of medium 199 (Mediatech, Herndon Va.) supplemented with an antibiotic-antifungal solution (Gibco/Invitrogen, Grand Island, N.Y.; 100 Units/mL of sodium penicillin G, 100 μg/mL of streptomycin sulfate, and 25 μg of amphotericin B) and buffered to a pH of 7.6. Tumor specimens were placed in chilled serum-containing growth media (medium 199 with 20% fetal bovine serum [FBS], Gibco/Invitrogen) and kept under refrigeration until they were processed. The specimens were processed within 24 hours of surgical harvesting. Minced tumor fragments approximately 2 mm in diameter and 1 mm thick were prepared and rapidly embedded within the fibrin clots. Each tumor fragment was placed in the center of a thrombin-treated well. […] Percent initiation (% I) is a ratio calculated from the number of wells that developed an angiogenic response divided by the total number of wells prepared (×100). […] On day 14, fragments were examined microscopically and scored for an angiogenic response (angiogenic index=0-16). […]

[1] = test system: fragments from a neuroendocrine lymph node metastasis; assay: tumor fragment fibrin clot angiogenesis assay, neuroendocrine lymph node metastasis; type: cell-based, human; details: 1 mM, day 14, control compound
Protocol: as §1

SMILES: O=C(O)c1cc(O)c(O)c(O)c1 [Gallic Acid]
- angiogenic response (angiogenic index 0-16) (fragments from a sarcoma): total inhibition
- angiogenic response (angiogenic index 0-16) [1]: total inhibition
